Test results reported in publication PMC8151276, “An Integrated Approach toward NanoBRET Tracers for Analysis of GPCR Ligand Engagement” (Molecules, 2021).

Biological target: T1, P2RY12 (Homo sapiens, UniProt Q9H244)
T1 construct: purchased Promega (in-house HiBiT-GPCR construct library, NanoBRET)
Experiment: NanoBRET screen HiBiT-P2RY12 in HEK293
Assay type: binding
Protocol: Each tracer candidate was screened across the entire library of HiBiT-GPCR constructs using NanoBRET as the detection modality. As depicted in Figure 4A, the specificity of interactions was evaluated through decrease in BRET due to competitive displacement of a bound tracer by excess parental compound. Each tracer was analyzed for binding to each HiBiT-GPCR fusion in the absence and in the presence of competing parental compound. Briefly, HEK293 cells were transfected with HiBiT-GPCR constructs diluted into promoterless DNA to reduce expression and maximize translocation to the cell surface. Each tracer candidate was then screened at concentrations of 1 μM and 0.1 μM across cells expressing these fusions. Cells were treated for 1.5 h with tracer either alone or in the presence of 20 μM competing parental compound (i.e., control). BRET was measured upon addition of purified LgBiT and subsequent complementation with HiBiT genetically fused to a GPCR. The specificity of interactions was assessed through a decrease in BRET signal due to competitive displacement of the bound tracer. To further gauge the robustness of these interactions, the fold response over the control (i.e., BRETtracer/BRETcontrol) was calculated. We chose a 1.5-fold response, which translates to ≥7-fold signal over noise as the minimal threshold required to score an interaction as positive. […]. Below we highlight the screening results obtained for our exemplary fluorescent tracers based on Clozapine, Amitriptyline and AZD1283.
HiBiT-GPCR DNA constructs were diluted in 10 mM Tris pH 8 to a final concentration of 0.01 μg/μL, arrayed in 96-well plates and stored at −20 °C. For transfection, HEK293 cells were suspended in Opti-MEM (without phenol red) supplemented with 2% fetal bovine serum (Seradigm) and 100 units/mL penicillin–streptomycin (Gibco) at a final concentration of 220,000 cells/mL and dispensed into white 96-well plates at 90 μL/well. Subsequent transfections and screens were carried using an Agilent Bravo Automated Liquid Handling Platform. First, the 96-well HiBiT DNA arrays were diluted 25-fold in Opti-MEM (without serum or phenol red) to a final concentration of 0.0004 μg/μL and 20 μL of the diluted DNAs were transferred into new 96-well plates. Next, promoterless carrier DNA (1 μg/μL) was diluted 25-fold (0.04 μg/μL) and then dispensed into the diluted arrays at 20 μL/well. Following brief mixing, Viafect transfection reagent (Promega) diluted 16-fold into Opti-MEM was dispensed into the plates at 40 μL/well. After mixing by pipetting, plates were incubated for 10 min on the pipetting station deck. The DNA-transfection reagent complexes were then added to plates containing cells. To facilitate the screen, 10 μL of DNA-transfection reagent complexes were added in duplicates to the top 4 and bottom 4 rows, resulting in two identical 48-well arrays per plate. Plates with transfected cells were incubated for 18–20 h at 37 °C/5% CO2. A screen of each tracer across the entire library using two different concentrations requires duplicate plates of transfected cells. Depending on the number of tracers being screened, transfections can be scaled up using the same ratios. The next day, for each tracer, four 20× screening solutions in tracer dilution buffer (Promega) were prepared: two duplicates at final concentration of 20 μM and two duplicates at a final concentration of 2 μM. A competing unmodified compound was added to one of each duplicate at a final concentration of 400 μM. The four resulting solutions were diluted 4-fold in Opti-MEM without serum or phenol red to generate 5× solutions (5 µM and 0.5 µM tracer +/− 100 μM competing compound). To screen the library, a BioTek MultiFlo FX liquid dispenser was used to dispense 22.5 µL of tracer solution to the top 4 rows and 22.5 µL tracer + competing compound solution to the 4 bottom rows. Plates were briefly mixed on an orbital shaker and incubated for 1.5 h at room temperature. […]

T1 sequence (Q9H244 whole entry, one chain of several): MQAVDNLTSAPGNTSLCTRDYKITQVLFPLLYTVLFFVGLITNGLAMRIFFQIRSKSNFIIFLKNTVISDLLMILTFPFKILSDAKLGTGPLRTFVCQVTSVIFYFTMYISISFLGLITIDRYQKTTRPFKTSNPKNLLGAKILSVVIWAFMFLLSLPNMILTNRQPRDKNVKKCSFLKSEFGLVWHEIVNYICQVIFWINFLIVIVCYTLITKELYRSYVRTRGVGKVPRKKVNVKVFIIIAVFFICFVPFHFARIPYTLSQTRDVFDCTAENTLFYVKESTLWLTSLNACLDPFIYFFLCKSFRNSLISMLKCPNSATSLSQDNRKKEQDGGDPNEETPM

| SMILES | NanoBRET Fold Response (P2RY12, tracer 0.1μM) | NanoBRET Fold Response (P2RY12, tracer 1μM) | further results |
| --- | --- | --- | --- |
| Cc1nc2n(c(=O)c1CCN1CCC(c3noc4cc(F)ccc34)CC1)CCCC2OC(=O)NCCOCCOCCOCCOCCNC(=O)CCc1ccc2n1[B-](F)(F)[N+]1=C(c3ccc[nH]3)C=CC1=C2 (centres unmarked) [Risperidone-2-NB590] | 1.05 | 0.95 |  |
| CCOC(=O)c1cc(C#N)c(N2CCC(C(=O)NS(=O)(=O)Cc3ccccc3/C=C/C(=O)NCCNC(=O)CCc3ccc4n3[B-](F)(F)[N+]3=C(c5ccc[nH]5)C=CC3=C4)CC2)nc1C [AZD1283-1-NB590] |  |  | NanoBRET Fold Response (P2RY12, 0.1μM): 3.11; NanoBRET Fold Response (P2RY12, 1μM): 2.18 |
| Cc1cc2c(s1)Nc1ccccc1N=C2N1CCN(CCCNC(=O)CCOCCOCCOCCOCCNC(=O)CCc2ccc3n2[B-](F)(F)[N+]2=C(c4ccc[nH]4)C=CC2=C3)CC1 [Olanzapine-a-2-NB590] | 0.98 | 0.97 |  |
| COc1ccccc1N1CCN(CCCCN2C(=O)c3ccc(CNC(=O)CCOCCNC(=O)c4ccc(CNC(=O)CCc5ccc6n5[B-](F)(F)[N+]5=C(c7ccc[nH]7)C=CC5=C6)cc4)cc3C2=O)CC1 [NAN-190-3-NB590] | 1.12 | 1.10 |  |
| CC(C)N(CC[C@H](c1ccccc1)c1cc(CCNC(=O)CCOCCOCCOCCOCCNC(=O)CCc2ccc3n2[B-](F)(F)[N+]2=C(c4ccc[nH]4)C=CC2=C3)ccc1O)C(C)C [Tolterodine-2-NB590] | 0.93 | 0.95 |  |
| CN(C)CCC=C1c2ccccc2CCc2ccc(C(=O)NCCNC(=O)CCOCCOCCOCCOCCNC(=O)CCc3ccc4n3[B-](F)(F)[N+]3=C(c5ccc[nH]5)C=CC3=C4)cc21 [Amitriptyline-b-2-NB590] |  |  | NanoBRET Fold Response (tracer at 0.1μM, listed as amitriptyline-b-2-NB590): 0.96 |
| O=C(CCOCCOCCOCCOCCNC(=O)CCc1ccc2n1[B-](F)(F)[N+]1=C(c3ccc[nH]3)C=CC1=C2)NCCCN1CCN(C2=Nc3ccccc3Oc3ccc(Cl)cc32)CC1 [Loxapine-a-2-NB590] | 0.99 | 0.84 |  |
| CN(C)CCC=C1c2ccccc2CCc2ccc(C(=O)NCCNC(=O)CCOCCOCCOCCOCCNC(=O)CCc3ccc4n3[B-](F)(F)[N+]3=C(c5ccc[nH]5)C=CC3=C4)cc21 [Amitriptyline-a-2-NB590] |  |  | NanoBRET Fold Response (tracer at 0.1μM): 1.14; NanoBRET Fold Response (tracer at 1μM): 0.93 |
| O=C(CCc1ccc2n1[B-](F)(F)[N+]1=C(c3ccc[nH]3)C=CC1=C2)NCCOCCOCCNC(=O)OCCOCCN1CCN(C2=Nc3ccccc3Sc3ccccc32)CC1 [Quetiapine-a-2-NB590] | 0.99 | 0.92 |  |
| CN1CCN(C2=Nc3cc(Cl)ccc3N(CC(=O)NCCOCCOCCOCCOCCNC(=O)CCc3ccc4n3[B-](F)(F)[N+]3=C(c5ccc[nH]5)C=CC3=C4)c3ccccc32)CC1 [Clozapine-c-2-NB590] |  |  | NanoBRET Fold Response (P2RY12, 0.1μM tracer): 0.99; NanoBRET Fold Response (P2RY12, 1μM tracer): 0.95 |
| COc1ccc2[nH]c(-c3ccc(CNC(=O)CCOCCOCCOCCOCCNC(=O)CCc4ccc5n4[B-](F)(F)[N+]4=C(c6ccc[nH]6)C=CC4=C5)cc3)c(CCNC(C)=O)c2n1 [AzomelatoninICO9-2-NB590] |  |  | NanoBRET Fold Response (0.1μM tracer): 1.15; NanoBRET Fold Response (1μM tracer): 1.05 |
| O=C(CCOCCOCCOCCOCCNC(=O)CCc1ccc2n1[B-](F)(F)[N+]1=C(c3ccc[nH]3)C=CC1=C2)NCCCN1CCN(C2=Nc3cc(Cl)ccc3Nc3ccccc32)CC1 [Clozapine-a-2-NB590] |  |  | NanoBRET Fold Response (P2RY12, 0.1μM tracer): 1.00; NanoBRET Fold Response (P2RY12, 1μM tracer): 0.94 |
| CCCn1c(=O)c2[nH]c(-c3ccc(OCC(=O)NCCNC(=O)CCOCCNC(=O)c4ccc(CNC(=O)CCc5ccc6n5[B-](F)(F)[N+]5=C(c7ccc[nH]7)C=CC5=C6)cc4)cc3)nc2n(CCC)c1=O [XAC-3-NB590] | 0.91 | 1.04 |  |
| O=C(CCc1ccc2n1[B-](F)(F)[N+]1=C(c3ccc[nH]3)C=CC1=C2)NCc1ccc(C(=O)NCCOCCOCCNCC(O)COc2cccc3ccccc23)cc1 (centres unmarked) [Propranolol-3-NB590] |  |  | NanoBRET Fold Response (P2RY12, 0.1μM): 1.02; NanoBRET Fold Response (P2RY12, 1μM): 0.94 |
| O=C(CCc1ccc2n1[B-](F)(F)[N+]1=C(c3ccc[nH]3)C=CC1=C2)NCc1ccc(C(=O)NCCOCCC(=O)N[C@@H]2CC[C@@]3(O)[C@H]4Cc5ccc(O)c6c5[C@@]3(CCN4CC3CC3)[C@H]2O6)cc1 [Naltrexone-3-NB590] | 1.30 | 0.88 |  |
| CN(CCC=C1c2ccccc2CCc2ccccc21)C(=O)CCOCCOCCOCCOCCNC(=O)CCc1ccc2n1[B-](F)(F)[N+]1=C(c3ccc[nH]3)C=CC1=C2 [Amitriptyline-e-2-NB590] |  |  | NanoBRET Fold Response (tracer at 1μM): 1.05 |
| N#CN=C(NCCCOc1cccc(CN2CCCCC2)c1)NCCNC(=O)CCOCCOCCOCCOCCNC(=O)CCc1ccc2n1[B-](F)(F)[N+]1=C(c3ccc[nH]3)C=CC1=C2 [Aminopotentidine-2-NB590] | 0.94 | 0.99 |  |
| COc1ccc2c(n1)c(CCNC(C)=O)cn2CCNC(=O)CCc1ccc2n1[B-](F)(F)[N+]1=C(c3ccc[nH]3)C=CC1=C2 [Azamelatonin-1-NB590] |  |  | NanoBRET Fold Response (0.1μM tracer): 1.02; NanoBRET Fold Response (1μM tracer): 1.02 |
| CC(C)N(CC[C@H](c1ccccc1)c1cc(CCNC(=O)c2ccc(CNC(=O)CCc3ccc4n3[B-](F)(F)[N+]3=C(c5ccc[nH]5)C=CC3=C4)cc2)ccc1O)C(C)C [Tolterodine-BZ-NB590] | 1.08 | 0.91 |  |
| CN1CCN(C2=Nc3cc(Cl)ccc3Nc3ccc(CNC(=O)CCOCCOCCOCCOCCNC(=O)CCc4ccc5n4[B-](F)(F)[N+]4=C(c6ccc[nH]6)C=CC4=C5)cc32)CC1 [Clozapine-b-2-NB590] |  |  | NanoBRET Fold Response (P2RY12, 0.1μM tracer): 1.00; NanoBRET Fold Response (P2RY12, 1μM tracer): 0.97 |
